Test results published in patent publication US8481738B2, “Gonadotropin-releasing hormone receptor antagonists and methods relating thereto” (Neurocrine Biosciences, Inc., priority 2007, dated 2013).

Target: T1, human GnRH receptor (Homo sapiens, UniProt P30968)
T1 construct: expressed in transfected cells; host or cells: RBL cells, stably transfected (in general)
T1 sequence (P30968 1-328): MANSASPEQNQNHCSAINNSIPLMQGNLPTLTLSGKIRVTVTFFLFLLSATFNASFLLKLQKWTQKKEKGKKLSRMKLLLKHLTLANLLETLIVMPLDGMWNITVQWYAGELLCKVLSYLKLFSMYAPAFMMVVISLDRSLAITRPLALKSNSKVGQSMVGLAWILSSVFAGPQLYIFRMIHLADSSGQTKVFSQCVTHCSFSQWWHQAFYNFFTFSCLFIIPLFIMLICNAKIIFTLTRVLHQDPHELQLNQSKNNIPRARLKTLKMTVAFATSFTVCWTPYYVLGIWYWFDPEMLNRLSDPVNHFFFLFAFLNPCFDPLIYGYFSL
Test: Peptide competition radioligand binding displacement assay, human GnRH receptor membranes
Conditions: one or more of the peptide competition human receptor binding assays
Method: cDNA's of human, rhesus macaque, rabbit, dog and rat GnRH receptors are cloned into pcDNA3.1 (+) (Invitrogen). Full length sequences of all receptors are confirmed by DNA sequencing. HEK 293, CHO, COS-7, or rat basophilic leukemia (RBL) cells are stably transfected with human, rat, or macaque GnRH receptors and high expressing single cell clones (Bmax≧0.4 pMol/mg membrane protein) are isolated and maintained in Dulbecco's Modified Eagles Medium (DMEM) with following supplements: 10 mM HEPES; 2 mM L-glutamine; 1 mM Sodium Pyruvate; 50 U/mL penicillin, 50 μg/mL streptomycin; 10% Heat-inactivated Fetal Bovine Serum and 200 μg/mL Geneticin (G-418-Sulfate). Non-essential amino acids (0.1 mM) (Irvine Scientific; Santa Ana, Calif.) are included in the RBL cell media.
In general, initial peptide radioligand binding assays are carried out using membranes from stably transfected RBL cells. RBL stable clones are found to more consistently express high levels of GnRH receptor and are therefore used for subsequent binding studies as well as Ca^++ flux and inositol phosphate accumulation assays. Transiently transfected COS-7 cells are used for preparation of membranes containing GnRH receptors from multiple species (as well as those of mutant receptors for other studies) because of the convenience for rapidly analyzing multiple receptors.
HEK293 cells stably transfected with the human GnRH receptor are grown for two days after achieving confluence then are harvested by striking tissue culture flasks against a firm surface. Cells are collected by centrifugation at 1000 g for 5 minutes. Cell pellets are resuspended in 5% sucrose and homogenized using a polytron homogenizer for two 15 second homogenization steps. Cell homogenates are then centrifuged for 5 minutes at 3000 g to remove nuclei and the supernatant subsequently centrifuged for 30 minutes at 44,000 g to collect the membrane fraction. The membrane pellet is resuspended in GnRH binding buffer (10 mM HEPES, pH 7.5, 150 mM NaCl and 0.1% BSA) and aliquots immediately snap-frozen in liquid nitrogen and stored at −80° C. Protein content of the membrane suspension is determined using the Bio-Rad protein assay kit (Bio-Rad).
RBL cells stably transfected with the human GnRH receptor are grown to 80% confluency prior to harvesting. The cells are incubated at 37° C. for 10 min in 0.5 mM EDTA/PBS (Ca^++, Mg^++ free), and are dislodged from the plate by gentle rapping of the flasks. Cells are collected and pelleted by centrifugation at 1000 g for 5 minutes. Cell pellets are resuspended in buffer (DPBS supplemented with 10 mM MgCl2, 2 mM EGTA, pH=7.4), and cell lysis is performed using a pressure cell and applying N2 at a pressure of 900 psi for 30 min at 4° C. Unbroken cells and larger debris were removed by centrifugation at 1200 g for 10 min at 4° C. The cell membrane supernatant is then centrifuged at 45,000 g and the resulting membrane pellet is resuspended in assay buffer and homogenized on ice using a tissue homogenizer. Protein concentrations are determined using the Coomassie Plus Protein Reagent kit. Membranes are aliquoted and stored at −80° C. until ready for use.
COS-7 cells transiently transfected with GnRH receptors from different species (human, macaque, dog, rabbit, rat) or mutant GnRH receptors are prepared by bulk electroporation. COS-7 cells are obtained from American Type Cell Culture (Manassas, Va.) and are maintained in Dulbeccos's modified Eagle's medium (DMEM) (MediaTech Inc., Herndon, Va.) containing 10% fetal bovine serum, 10 mM HEPES, 2 mM L-glutamine, 1 mM sodium pyruvate, 50 U/mL penicillin, 50 μg/mL streptomycin. COS-7 cells are seeded in 500 cm^2 tissue culture plates and grown to confluency prior to cell transfection. […]

Compound | Ki
COC(=O)CCCOc1ccccc1N(C)C(=O)c1ccc(Cl)c(-c2cnc(C#N)cc2C)c1 [3-8] | ≤ 100 nM
COC(=O)CCCOc1cccc(C)c1N(C)C(=O)c1ccc(Cl)c(-c2cnc(C#N)cc2C)c1 [3-9] | ≤ 100 nM
COC(=O)CCCOc1ccccc1N(C)C(=O)c1ccc(Cl)c(-c2cnc(C(F)(F)F)cc2C#N)c1 [3-10] | ≤ 100 nM
COC(=O)CCCOc1cccc(C)c1N(C)C(=O)c1ccc(Cl)c(-c2cnc(C(F)(F)F)cc2C#N)c1 [3-11] | ≤ 100 nM
COC(=O)CCCOc1c(F)cccc1N(C)C(=O)c1ccc(Cl)c(-c2cnc(C(F)(F)F)cc2C#N)c1 [3-12] | ≤ 100 nM
Cc1cc(Cl)ncc1-c1cc(C(=O)N(C)c2ccccc2OCC(=O)O)ccc1Cl [4-1, (2-{[4-Chloro-3-(6-chloro-4-methyl-pyridin-3-yl)-benzoyl]-methyl-amino}-phenoxy)-acetic acid] | ≤ 100 nM
Cc1cc(Cl)ncc1-c1cc(C(=O)N(C)c2ccccc2OCCCC(=O)O)ccc1Cl [4-2] | ≤ 100 nM
Cc1cc(Cl)ncc1-c1cc(C(=O)N(C)c2c(C)cccc2OCCCC(=O)O)ccc1Cl [4-3] | ≤ 100 nM
Cc1cc(Cl)ncc1-c1cc(C(=O)N(C)c2cccc(F)c2OCCCC(=O)O)ccc1Cl [4-4] | ≤ 100 nM
Cc1cc(Cl)ncc1-c1cc(C(=O)N(C)c2ccccc2OCCCCC(=O)O)ccc1Cl [4-5] | ≤ 100 nM
Cc1cc(C(F)(F)F)ncc1-c1cc(C(=O)N(C)c2ccccc2OCCCC(=O)O)ccc1Cl [4-6] | ≤ 100 nM
Cc1cc(C(F)(F)F)ncc1-c1cc(C(=O)N(C)c2cccc(F)c2OCCCC(=O)O)ccc1Cl [4-7] | ≤ 100 nM
Cc1cc(C#N)ncc1-c1cc(C(=O)N(C)c2c(C)cccc2OCCCC(=O)O)ccc1Cl [4-8] | ≤ 100 nM
Cc1cc(C#N)ncc1-c1cc(C(=O)N(C)c2cccc(F)c2OCCCC(=O)O)ccc1Cl [4-9] | ≤ 100 nM
CN(C(=O)c1ccc(Cl)c(-c2cnc(C(F)(F)F)cc2C#N)c1)c1ccccc1OCCCC(=O)O [4-10] | ≤ 100 nM
Cc1cccc(OCCCC(=O)O)c1N(C)C(=O)c1ccc(Cl)c(-c2cnc(C(F)(F)F)cc2C#N)c1 [4-11] | ≤ 100 nM
CN(C(=O)c1ccc(Cl)c(-c2cnc(C(F)(F)F)cc2C#N)c1)c1cccc(F)c1OCCCC(=O)O [4-12] | ≤ 100 nM
Cc1cc(C#N)ncc1-c1cc(C(=O)N(C)c2ccccc2OCCCC(=O)O)ccc1Cl [5-1, 4-(2-{[4-Chloro-3-(6-cyano-4-methyl-pyridin-3-yl)-benzoyl]-methyl-amino}-phenoxy)-butyric acid] | ≤ 100 nM
Cc1cccc(OCCCC(=O)O)c1N(C)C(=O)c1ccc(Cl)c(-c2ncc(C(F)(F)F)cc2Cl)c1 [5-3] | ≤ 100 nM
Cc1cccc(OCCCC(=O)O)c1N(C)C(=O)c1ccc(Cl)c(-c2nc3ccccc3cc2C#N)c1 [5-4] | ≤ 100 nM
CN(C(=O)c1ccc(Cl)c(-c2ccc(Cl)cc2C#N)c1)c1ccccc1OCCCC(=O)O [5-6] | ≤ 100 nM
Cc1cc(Cl)ncc1-c1cc(C(=O)N(C)c2ccccc2OCC(N)=O)ccc1Cl [6-1, N-(2-Carbamoylmethoxy-phenyl)-4-chloro-3-(6-chloro-4-methyl-pyridin-3-yl)-N-methyl-benzamide] | ≤ 100 nM
CN(C)CCOc1ccccc1N(C)C(=O)c1ccc(Cl)c(-c2cnc(Cl)cc2Cl)c1 [7-1, 4-Chloro-3-(4,6-dichloro-pyridin-3-yl)-N-[2-(2-dimethylamino-ethoxy)-phenyl]-N-methyl-benzamide] | ≤ 100 nM

Now from value to molecule:

Ki | Compound
≤ 100 nM | Cc1cccc(O)c1N(C)C(=O)c1ccc(Cl)c(-c2cnc(C(F)(F)F)cc2C#N)c1 [8-7]
≤ 100 nM | Cc1cc(C#N)ncc1-c1cc(C(=O)N(C)c2c(C)cccc2OCCCO)ccc1Cl [9-5]
≤ 100 nM | Cc1cccc(OCCCO)c1N(C)C(=O)c1ccc(Cl)c(-c2ccc(C(F)(F)F)cc2C#N)c1 [10-1, 4-Chloro-3-(2-cyano-4-trifluoromethyl-phenyl)-N-[2-(3-hydroxy-propoxy)-6-methyl-phenyl]-N-methyl-benzamide]
≤ 100 nM | CN(C(=O)c1ccc(Cl)c(-c2nc3ccccc3cc2C#N)c1)c1ccccc1OCCCO [10-2, 4-chloro-3-(3-cyano-quinolin-2-yl)-N-[2-(3-hydroxy-propoxy)-phenyl]-N-methyl-benzamide]
≤ 100 nM | Cc1cc(C#N)ncc1-c1cc(C(=O)N(C)c2ccccc2OCCC(=O)O)ccc1Cl [11-1, 3-(2-{[4-Chloro-3-(6-cyano-4-methyl-pyridin-3-yl)-benzoyl]-methyl-amino}-phenoxy)-propionic acid]
≤ 100 nM | Cc1cc(Cl)ncc1-c1cc(C(=O)N(C)c2ccccc2OCCC(=O)O)ccc1Cl [11-2]
≤ 100 nM | Cc1cc(C(F)(F)F)ncc1-c1cc(C(=O)N(C)c2ccccc2OCCC(=O)O)ccc1Cl [11-3]
≤ 100 nM | CN(C(=O)c1ccc(Cl)c(-c2cnc(C(F)(F)F)cc2C#N)c1)c1ccccc1OCCC(=O)O [11-4, 3-(2-{[4-chloro-3-(4-cyano-6-trifluoromethyl-pyridin-3-yl)-benzoyl]-methyl-amino}-phenoxy)-propionic acid]
≤ 100 nM | Cc1cc(C(F)(F)F)ncc1-c1cc(C(=O)N(C)c2c(C)cccc2OCCC(=O)O)ccc1Cl [11-5]
≤ 100 nM | Cc1cc(C#N)ncc1-c1cc(C(=O)N(C)c2c(C)cccc2OCCC(=O)O)ccc1Cl [11-6]
≤ 100 nM | Cc1cccc(OCCC(=O)O)c1N(C)C(=O)c1ccc(Cl)c(-c2cnc(C(F)(F)F)cc2C#N)c1 [11-7]
≤ 100 nM | Cc1cccc(OCCC(=O)O)c1N(C)C(=O)c1ccc(Cl)c(-c2ccc(C(F)(F)F)cc2C#N)c1 [11-8]
≤ 100 nM | COC(=O)CCCc1ccccc1N(C)C(=O)c1ccc(Cl)c(-c2cnc(C(F)(F)F)cc2C#N)c1 [13-3]
≤ 100 nM | Cc1cc(Cl)ncc1-c1cc(C(=O)N(C)c2ccccc2CCCC(=O)O)ccc1Cl [14-1, 4-(2-{[4-Chloro-3-(6-chloro-4-methyl-pyridin-3-yl)-benzoyl]-methyl-amino}-phenyl)-butyric acid]
≤ 100 nM | Cc1cc(C(F)(F)F)ncc1-c1cc(C(=O)N(C)c2ccccc2CCCC(=O)O)ccc1Cl [14-2]
≤ 100 nM | Cc1cc(C#N)ncc1-c1cc(C(=O)N(C)c2ccccc2CCCC(=O)O)ccc1Cl [14-3]
≤ 100 nM | CN(C(=O)c1ccc(Cl)c(-c2cnc(C(F)(F)F)cc2C#N)c1)c1ccccc1CCCC(=O)O [14-4]
≤ 100 nM | CN(C(=O)c1ccc(Cl)c(-c2nc3ccccc3cc2C#N)c1)c1ccccc1CCCC(=O)O [15-1, 4-(2-{[4-Chloro-3-(3-cyano-quinolin-2-yl)-benzoyl]-methyl-amino}-phenyl)-butyric acid]
≤ 100 nM | CCOC(=O)CCOc1ccccc1N(C)C(=O)c1ccc(Cl)c(-c2cnc(C(F)(F)F)cc2C#N)c1 [16-2, 3-(2-{[4-chloro-3-(4-cyano-6-trifluoromethyl-pyridin-3-yl)-benzoyl]-methyl-amino}-phenoxy)-propionic acid ethyl ester]
≤ 100 nM | CCN(C(=O)c1ccc(Cl)c(-c2ncc(Cl)cc2Cl)c1)c1ccccc1OC [17-2]
≤ 100 nM | COc1ccccc1N(C(=O)c1ccc(Cl)c(-c2ncc(Cl)cc2Cl)c1)C1CC1 [18-1, 4-Chloro-N-cyclopropyl-3-(3,5-dichloro-pyridin-2-yl)-N-(2-methoxy-phenyl)-benzamide]
≤ 100 nM | CN(C(=O)c1ccc(Cl)c(-c2ncc(Cl)cc2Cl)c1)c1ccccc1O [19-1, 4-Chloro-3-(3,5-dichloro-pyridin-2-yl)-N-(2-hydroxy-phenyl)-N-methyl-benzamide]
